Results: the NIST ThermoML archive (doi:10.1016/j.jct.2004.07.024)

Test: xn = mol fraction of the nth substance listed
Conditions: 101.33 kPa, Liquid

C=Cc1ccccc1 [styrene] + C[S+](C)[O-]
Conditions | mass density [kg/m3]
293.15 K, x1 = 0.062 | 1081.91
293.15 K, x1 = 0.1289 | 1064.06
293.15 K, x1 = 0.2169 | 1042.53
293.15 K, x1 = 0.2956 | 1024.85
293.15 K, x1 = 0.3596 | 1011.37
293.15 K, x1 = 0.4103 | 1001.24
293.15 K, x1 = 0.4596 | 991.74
293.15 K, x1 = 0.5023 | 983.85
293.15 K, x1 = 0.5689 | 972.01
293.15 K, x1 = 0.626 | 962.31
293.15 K, x1 = 0.7025 | 949.86
293.15 K, x1 = 0.7865 | 936.88
293.15 K, x1 = 0.8595 | 926.02
293.15 K, x1 = 0.9312 | 915.7
303.15 K, x1 = 0.0852 | 1066.12
303.15 K, x1 = 0.1495 | 1049.28
303.15 K, x1 = 0.2015 | 1036.5
303.15 K, x1 = 0.2695 | 1020.82
303.15 K, x1 = 0.3351 | 1006.61
303.15 K, x1 = 0.4055 | 992.33
303.15 K, x1 = 0.4824 | 977.63
303.15 K, x1 = 0.5588 | 963.89
303.15 K, x1 = 0.6196 | 953.53
303.15 K, x1 = 0.6726 | 944.85
303.15 K, x1 = 0.7369 | 934.68
303.15 K, x1 = 0.8069 | 924.05
303.15 K, x1 = 0.8756 | 913.99
303.15 K, x1 = 0.9458 | 904.01
313.15 K, x1 = 0.0665 | 1060.82
313.15 K, x1 = 0.1856 | 1029.88
313.15 K, x1 = 0.2581 | 1012.95
313.15 K, x1 = 0.3296 | 997.38
313.15 K, x1 = 0.3895 | 985.13
313.15 K, x1 = 0.4469 | 973.98
313.15 K, x1 = 0.5132 | 961.75
313.15 K, x1 = 0.5958 | 947.37
313.15 K, x1 = 0.6553 | 937.53
313.15 K, x1 = 0.7125 | 928.47
313.15 K, x1 = 0.7665 | 920.19
313.15 K, x1 = 0.8269 | 911.23
313.15 K, x1 = 0.8801 | 903.57
313.15 K, x1 = 0.9485 | 893.98
323.15 K, x1 = 0.0653 | 1050.77
323.15 K, x1 = 0.1856 | 1019.46
323.15 K, x1 = 0.2513 | 1004.06
323.15 K, x1 = 0.3257 | 987.81
323.15 K, x1 = 0.3969 | 973.33
323.15 K, x1 = 0.4582 | 961.55
323.15 K, x1 = 0.5296 | 948.61
323.15 K, x1 = 0.5701 | 941.56
323.15 K, x1 = 0.6352 | 930.72
323.15 K, x1 = 0.6925 | 921.57
323.15 K, x1 = 0.7468 | 913.21
323.15 K, x1 = 0.8169 | 902.83
323.15 K, x1 = 0.8825 | 893.48
323.15 K, x1 = 0.9555 | 883.37
333.15 K, x1 = 0.0626 | 1041.08
333.15 K, x1 = 0.1745 | 1011.71
333.15 K, x1 = 0.2469 | 994.63
333.15 K, x1 = 0.2963 | 983.69
333.15 K, x1 = 0.3458 | 973.27
333.15 K, x1 = 0.3899 | 964.37
333.15 K, x1 = 0.4525 | 952.34
333.15 K, x1 = 0.5252 | 939.14
333.15 K, x1 = 0.6053 | 925.5
333.15 K, x1 = 0.6852 | 912.68
333.15 K, x1 = 0.7562 | 901.86
333.15 K, x1 = 0.8362 | 890.23
333.15 K, x1 = 0.8826 | 883.72
333.15 K, x1 = 0.9332 | 876.75
343.15 K, x1 = 0.0866 | 1023.99
343.15 K, x1 = 0.1762 | 1000.88
343.15 K, x1 = 0.2459 | 984.45
343.15 K, x1 = 0.2856 | 975.61
343.15 K, x1 = 0.3595 | 960.11
343.15 K, x1 = 0.4041 | 951.25
343.15 K, x1 = 0.4896 | 935.26
343.15 K, x1 = 0.5695 | 921.33
343.15 K, x1 = 0.6254 | 912.1
343.15 K, x1 = 0.6925 | 901.53
343.15 K, x1 = 0.7569 | 891.83
343.15 K, x1 = 0.8042 | 884.96
343.15 K, x1 = 0.8685 | 875.91
343.15 K, x1 = 0.9344 | 866.93
353.15 K, x1 = 0.0659 | 1019.29
353.15 K, x1 = 0.1289 | 1002.33
353.15 K, x1 = 0.1865 | 987.92
353.15 K, x1 = 0.2415 | 975.04
353.15 K, x1 = 0.3063 | 960.8
353.15 K, x1 = 0.3895 | 943.8
353.15 K, x1 = 0.4589 | 930.59
353.15 K, x1 = 0.5362 | 916.84
353.15 K, x1 = 0.6089 | 904.68
353.15 K, x1 = 0.6812 | 893.25
353.15 K, x1 = 0.7462 | 883.47
353.15 K, x1 = 0.8126 | 873.91
353.15 K, x1 = 0.8865 | 863.68
353.15 K, x1 = 0.9522 | 854.91
